Here are results for 5 compounds from patent US8916137B2, “Monofunctional carbocyanine dyes for in vivo and in vitro imaging” (The General Hospital Corporation, priority 2008, dated 2014).

The subject of data set [1] is CHO cells. The experiment in a line: Fluorescence labeling and imaging of azido-sugar modified CHO cells by click reaction. Type of data set: cell-based, Chinese hamster. As to conditions: fixed CHO cells. How it is done:
Chinese hamster ovary (CHO) cells were maintained in a 5% CO2, water-saturated atmosphere and grown in F12 HAMS medium supplemented with 10% FBS, 1% penstrep and 1% L-glutamine. For biolabeling experiments, the cells were incubated for 2-3 days in the regular medium or medium supplemented with 100 μM Ac4ManNAc (Molecular probes) in an eight-well LabTek II chamber slide (Nunc). The medium was gently aspirated, and the cells were fixed at −20° C. by methanol for 10 min and then acetone for 1 min. […] Fluorescent images were captured on a Nikon Eclipse TE2000-S fluorescence microscope with 40× objective equipped with a Photometrics Cascade 512B CCD camera using excitation and emission filters from Chroma Technology. […]
Cells incubated with azido-sugar supplemented media (top) or unsupplimented media (bottom) are presented after treatment with CyAm-5 alkyne in the presence of Cu(I)/TBTA as catalyst. Cell nuclei stained with DAPI colored blue (left), fluorescence signal from CyAm-5 alkyne colored red (center) and the merged images (right) are shown. […]
FIGS. 6A-6B show fluorescent imaging of CHO cells labeled with CyAm-5 alkyne and controls. […] Cell nuclei stained with DAPI, fluorescence of labeled CyAm-5 alkyne and merge figures of the two above are shown in column left, middle and right, respectively. […]

Data set [2] in a line: Photostability (dye photobleaching under irradiation). Type of data set: physicochemical. The following applies: for photobleaching: irradiated for an hour at 620 nm, PBS pH 7.0, A620 nm<0.1 (FIG. 7); for photobleached: after 60 minutes of irradiation at 620 nm, PBS pH 7.0, absorbance matched (FIG. 4). Here is the method: Photostability data were collected on a Horiba Jobin Yvon Fluorolog-3 spectrofluorometer (Edison, N.Y.) equipped with a 450 W xenon lamp (Ushio inc. Japan). Dye photobleaching was observed by monitoring the fluorescence emission of absorbance matched dye samples (absorbance <0.1) at an excitation wavelength 620 nm for 60 minutes. […] Thus, CyAm-5 acid has 28% better photostability than Cy5.
Dye samples with the same absorption (A620 nm<0.1) were irradiated for an hour at 620 nm. Both bio-conjugatable new dyes, CyAm-5 acid and CycloCyAm-5 acid with photobleaching of 30% and 12%, respectively, were more photostable than Cy5 (45%).

For data set [3] the following is noted: cited from earlier work; for λem: as indicated on www.gelifesciences.com.
The conditions of data set [4]: as indicated on www.gelifesciences.com; cited from earlier work.
The nature of data set [5]: Absorption spectra and extinction coefficients of the fluorophores. The following applies: PBS, pH 7.0. Type of data set: physicochemical. How it is done:
Absorption spectra and extinction coefficients of the fluorophores were obtained on a Varian Cary 50-Bio UV-visible spectrophotometer. Extinction coefficients were measured in phosphate-buffered saline (PBS), 10 mM phosphate buffer pH 7.0, […] potassium chloride and 137 mM sodium chloride and were averaged over at least three sets of parallel experiments. For each trail, 2-3 mg of the HPLC-purified dyes were weighed on a Mettler AT201 analytical balance with an error of ±0.01 mg and were dissolved in deionized water using a 10 mL volumetric flask to prepare the stock solutions.
(§1) FIG. 9 summarizes the optical properties of CyAl-5 and CyAl-5.5. Spectra were obtained in phosphate buffered solution, pH 7.0. The extinction coefficients, at the dye absorption maxima, were performed in triplicate. Emission spectra were excited at 620 nm for CyAl-5 and 640 nm for CyAl-5.5. CyAl-5 and CyAl-5.5, Cy5 and Cy5.5 were used as fluorescence standards, respectively. The data are the average of at least 8 replicates and errors were <5%.

Data set [6] is described as follows: Emission spectra and fluorescence quantum yield. Type of data set: physicochemical. As to conditions: PBS, pH 7.0. Here is the method:
Emission spectra were collected on a Varian Cary Eclipse fluorescence spectrophotometer. Quantum yield measurements were performed on at least eight trails for each dye derivative with maximum absorption for each sample less than 0.1, using Cy5 as a standard (Φ=0.27) (Mujumdar, R. B., Ernst, L. A., Mujumdar, S. R., Lewis, C. J., and Waggoner, A. S. (1993) Cyanine dye labeling reagents: sulfoindocyanine succinimidyl esters. Bioconjug. Chem. 4, 105-11). The standard deviation for both the extinction coefficient and quantum yield measurements is less than 5%.
as §1

With `C#Cc1cccc(NC(=O)CCC(/C=C/C2=[N+](CC)c3ccc(S(=O)(=O)O)cc3C2(C)C)=C\C=C2\N(CC)c3ccc(S(=O)(=O)O)cc3C2(C)C)c1` [CyAm-5 alkyne], in data set [1] (20 μM dye, Cu(I) catalyst (FIG. 5)), the “fluorescence signal of cells bearing azido sialic acid versus control cells” value is “increased fluorescence signal”. The “conditions under which enhancement of fluorescence signal is observed” value in data set [1] (with or without Cu(I), TBTA, azido-sugar (FIG. 6A-B)) is “only observed in the presence of both catalyst Cu(I) and azido glycans”.

In the case of `CC1(C)C2=C(/C=C(/C=C3\CCC[N+]4=C3C(C)(C)c3cc(S(=O)(=O)O)ccc34)CCC(=O)Nc3ccc(C(=O)O)cc3)CCCN2c2ccc(S(=O)(=O)O)cc21` [CycloCyAm-5 acid], the photobleaching in data set [2] is reported as 12%.

Consider Cy5.5, for which, in data set [3], the λem is 693 nm. In data set [4], the λabs is listed as 673 nm.

Consider `CCN1/C(=C/C=C/C=C/C2=[N+](CCCCCC(=O)O)c3ccc(S(=O)(=O)O)cc3C2(C)C)C(C)(C)c2cc(S(=O)(=O)[O-])ccc21` [Cy5], for which, in data set [3] (Cy5 used as standard, literature value), the “quantum yield of standard (Φ)” value is 0.27. For the same compound, the λem in data set [3] is on record as 664 nm. Also, in data set [2], the photobleached came out at 54% and the photobleaching is on record as 45%. Also, the λabs in data set [4] is 646 nm.

Compound `CCN1/C(=C/C=C(/C=C/C2=[N+](CC)c3ccc(S(=O)(=O)O)cc3C2(C)C)CCC(=O)Nc2ccc(C(=O)O)cc2)C(C)(C)c2cc(S(=O)(=O)O)ccc21` [CyAm-5 acid] returned an absorption maximum in data set [5] of 642 nm. In data set [2], this compound had a photobleached of 42% and a photobleaching of 30%. Besides, the “better photostability / less photobleaching compared to Cy5” value in data set [2] (after an hour irradiation at 620 nm (FIG. 4)) is reported as 28%. For the same compound, the emission maximum in data set [6] is 658 nm.
